Data published in US12208001B2, “Methods and systems for preventing or reducing stenosis in a subject receiving a graft” (The General Hospital Corporation, priority 2012, dated 2025).
Read-outs that look alike come from different tables or passages of the source.

How the values were obtained:
[1] = tested on: fascia of the implant pocket; test: Biodegradation assay: collagenase digestion of fascia; design: species or system rabbit
Protocol: A pilot experiment in a rabbit model for capsular contraction was developed. Three sub-cutaneous pockets were made by surgical incision on the upper rabbit flank. One pocket was left untreated and surgically closed (No fibrin glue). Of the remaining two, one was treated with Fibrin Glue only, and one received Fibrin Glue+RB (0.1% Rose Bengal)+532 nm light (3 min at 350 mW). Fibrin glue is known to produce a fibrotic reaction in this model. After two weeks all three pockets were surgically re-accessed and inspected. […] These cells also appear contained under layers of presumably, cross-linked collagen. A biodegradation assay was also performed. Pockets were treated as described above at both a low (1 J/cm^2) and high (25 J/cm^2) fluence. Fluence was measured using FieldMax II laser power meter (Coherent, Santa Clara, CA). Immediately following, the skin and fascia were removed. Treated and untreated fascia were biopsied with a six mm punch biopsy, weighed and subjected to digestion in a 1% collagenase (Sigma Aldrich. St. Louis, MO) solution at 37° C. Time for complete digestion (the lack of any visible fibers) was recorded for each sample and corrected by weight. In vitro studies confirmed that photochemical tissue passivation, under the conditions that were subsequently used in the animal study, could successfully alter the fascia of the implant pocket. […]

[2] = tested on: capsular contracture following prosthetic implant placement; test: Pre-clinical model of capsular contracture following prosthetic implant placement, fibrin glue induced; type: in vivo, New Zealand white rabbits
Protocol: The effect of Photochemical Tissue Passivation in a pre-clinical model of capsular contracture following prosthetic implant placement was evaluated. Under general anesthesia, Nine New Zealand white rabbits received three, six cc smooth saline implants placed in the dorsal sub-panniculus soft tissue. Each Rabbit received one control implant and two experimental implants. Briefly, the subpanniculus camosus plane in the dorsum region was dissected and a single customized six cc saline smooth implant with pressure port valve (Allergan Inc., CA, USA) was placed. A total of three implants were placed on the dorsum of each rabbit. The control group consisted of an implant with no Fibrin Glue and no PTP treatment. Before implant placement, the pocket site of the PTP experimental group was treated with 2 ml 0.1% Rose Bengal in a phosphate buffered saline, and Was then exposed to green laser light at 532 nm from a continuous wave KTP laser (Laserscope Aura-I, San Jose, CA). The second experimental group consisted of an implant with Fibrin Glue only. Prior to implant placement, all experimental pockets were injected with five cc of fibrin glue, 500 |μl of 10% CaCl, 1000 units of thrombin in one milliliter of 50 mM TrisCl as a contracture inducing agent. The incisions were closed in two layers with subdermal 4-0 […] and 4-0 interrupted nylon sutures. Topical fibrin glue was applied to the implant pockets in all experimental groups to induce subsequent capsular contracture. Accordingly, the experimental groups can be summarized as follows: Group 1: Control group-“Standard Breast Augmentation” One pocket per Rabbit undergoing standard implant placement with no Fibrin Glue or Passivation. One six cc smooth saline implant was placed per pocket. The incisions were closed in two layers with subdermal 4-0 Vicryl and 4-0 interrupted nylon sutures. Group 2: Experimental group-“Fibrin Glue” only One dorsal pocket per Rabbit is dissected. Fibrin glue was injected into the implant pocket as a capsular contracture-inducing agent. One six cc smooth saline implants was placed per pocket. The incision was closed as above. Group 3: Experimental group-“Pre-implant Tissue Passivation” One dorsal pocket per Rabbit was dissected, Rose Bengal dye was applied. The pocket was exposed to green laser light at. 532 nm from. a continuous wave KT.? laser (Laserscope Aura-I, San Jose, CA). Fibrin glue was injected into the implant pocket as a capsular contracture-inducing agent. Following fibrin glue injection, one six cc smooth saline implant was placed per pocket. The incision was closed as above. Capsule specimens were fixed with 10% buffered formalin and embedded in paraffin. Sections were stained with both Masson Trichrome, and SMA antibody and evaluated histologically and capsular thickness was measured. […] In fact, the SMA pattern in capsules harvested from the treated groups resembled those, which had not been instilled with fibrin glue (FIG. 3).

[3] = tested on: vein graft intimal hyperplasia; type: in vivo, Sprague-Dawley rats
Protocol: In vivo testing was done by placing a. reversed epigastric vein interposition graft in the femoral artery of Sprague-Dawley rats. Grafts were harvested after four weeks. A total of 16 rats underwent a femoral interposition graft with reversed epigastric vein. Half of the vein gratis (N=8) were treated with PTP using 25 J/cm^2 at fluence. Average operative time was two hours. Additional operative time for PTP was 4-5 minutes on average. There were three instances of surgical wound dehiscence between post-operative day one and two; one in the control group and two in the experimental group. These wounds were irrigated and resutured. None of the grafts were exposed. […] After four weeks, 100% of the vein grafts were patent. […] Histologic cross-sections of the mid-portion of the graft were analyzed using light microscopy. Intimal thickness was measured as the distance between the internal elastic lamina. and the vessel lumen.

connective tissue = tested on: connective tissue
Description: In certain embodiments, a photoactive agent, e.g., Rose Bengal, can be applied, e.g., by brushing, dripping or spraying onto, or injecting into, tissue surfaces (e.g., a single surface in some cases) of a tissue prior to the application of electromagnetic energy, followed by irradiation at an irradiance of less than about 1 W/cm^2. Penetration of topically applied Rose Bengal is about 100 μm or less into connective tissue. […] Similarly, vein grafts or arteriovenous fistula can be prepared for therapeutic use by providing Rose Bengal to the tissue and irradiating the tissue at an irradiance of less than about 1 W/cm^2.

[4] = tested on: rabbit model for capsular contraction; test: Pilot rabbit model for capsular contraction: sub-cutaneous pockets with fibrin glue, histology at two weeks; type: in vivo; details: tissue harvested at two weeks; 0.1% Rose Bengal + 532 nm light (3 min at 350 mW) prior to fibrin glue; vs fibrin glue only
Protocol: A pilot experiment in a rabbit model for capsular contraction was developed. Three sub-cutaneous pockets were made by surgical incision on the upper rabbit flank. One pocket was left untreated and surgically closed (No fibrin glue). Of the remaining two, one was treated with Fibrin Glue only, and one received Fibrin Glue+RB (0.1% Rose Bengal)+532 nm light (3 min at 350 mW). Fibrin glue is known to produce a fibrotic reaction in this model. After two weeks all three pockets were surgically re-accessed and inspected. […] These cells also appear contained under layers of presumably, cross-linked collagen. A biodegradation assay was also performed. Pockets were treated as described above at both a low (1 J/cm^2) and high (25 J/cm^2) fluence. Fluence was measured using FieldMax II laser power meter (Coherent, Santa Clara, CA). Immediately following, the skin and fascia were removed. Treated and untreated fascia were biopsied with a six mm punch biopsy, weighed and subjected to digestion in a 1% collagenase (Sigma Aldrich. St. Louis, MO) solution at 37° C. Time for complete digestion (the lack of any visible fibers) was recorded for each sample and corrected by weight.

O=C1OC2(c3cc(I)c(O)c(I)c3Oc3c2cc(I)c(O)c3I)c2c(Cl)c(Cl)c(Cl)c(Cl)c21 [PTP, Rose Bengal]
increase in degradation time (collagenase digestion) ([1]; 1% collagenase, 37° C, compared to untreated tissue): 300% | effect of increasing the power of the laser on collagen cross-linking ([1]; high (25 J/cm^2) vs low (1 J/cm^2) fluence): did not increase collagen cross-linking | capsular thickness compared to Fibrin Glue alone control (histology) ([2]; eight weeks, Fibrin Glue + Photochemical Tissue Passivation group): significant decrease in capsular thickness | decrease in capsule thickness ([2]; eight weeks, compared to the controls): 52% | deposition of smooth muscle actin (SMA immunohistochemistry) ([2]; eight weeks, treated pockets vs untreated pockets receiving fibrin glue): significantly less deposition of smooth muscle actin | fibrohistiocystic cells, macrophages and synovial metaplasia ([2]; treated pockets): less fibrohistiocystic cells, macrophages and synovial metaplasia | inflammation and vascularity within the capsule ([2]; treated pockets): decreased inflammation and vascularity | Intimal Thickness ([3]; after four weeks, N = 8, Table 2): 24 + 22 um | Medial thickness ([3]; after four weeks, N = 8, Table 3): 141 + 40 um | vein grafts patent ([3]; after four weeks, all grafts, treated and untreated): 100% | neointimal thickness ([3]; four weeks, PTP 25 J/cm^2, N=8): 24+22 μm | Medial thickness ([3]; four weeks, treated grafts): 141 µm | instances of surgical wound dehiscence ([3]; rat, in vivo): two | pseudoaneurysms or aneurysmal dilatation of the grafts ([3]; rat, in vivo): no pseudoaneurysms or aneurysmal dilatation | wound infections ([3]; rat, in vivo): no wound infections | graft distention after vessel clamp removal ([3]; restored blood flow, compared to untreated controls): less distention | smooth muscle hypertrophy and medial thickness ([3]; treated compared to untreated grafts): marked reduction in smooth muscle hypertrophy and medial thickness | reduction in neointimal thickness ([3]; treated grafts vs untreated): 70% | penetration into connective tissue (connective tissue): ≤ 100 μm | inflammatory infiltrate within the implant pockets (histology) [4]: less infiltrate
